Experimental data reported in patent US9676777B2, “Compounds useful for producing an optically active diazabicyclooctane compound” (Meiji Seika Pharma Co., Ltd., priority 2010, dated 2017).

Experiments:
[1] = molecular target: AmpC (Pseudomonas aeruginosa (strain ATCC 15692 / DSM 22644 / CIP 104116 / JCM 14847 / LMG 12228 / 1C / PRS 101 / PAO1), UniProt P24735); type: biochemical; conditions: result in words
Description: The biological activity of the above-mentioned compounds represented by formulae (H) and (s) can be measured as follows. […] Further, using constitutive AmpC producing Pseudomonas aeruginosa, a combined antimicrobial activity (MIC) was measured when using Piperacillin (PIPC) as an antibiotic and the compound of formula (H) or (s) in combination to check whether or not the antimicrobial activity of PIPC could be restored.
Using P. aeruginosa PAO1 genome as a template, a DNA for encoding an AmpC β-lactamase domain excluding a signal peptide was amplified with PCR. This PCR product was incorporated into pET-28b(+)vector (Merck), introduced into E. coli BL21 (Merck), and, under induction of 1 mM isopropyl-β-D-(−)-thiogalactopyranoside (Nacalai Tesque), cultured overnight at 20° C. to express AmpC. After the bacterial cell was collected, AmpC was purified from the cell extract obtained by ultrasonic treatment, using CM Sepharose Fast Flow (GE Healthcare) and HiTrap Heparin HP (GE Healthcare) at 4° C.

[2] = test system: P. aeruginosa PAO1 variant, which constitutively expresses AmpC; experiment: Combinatorial antibacterial activity (MIC of PIPC) in combination with test compound, agar plate dilution; type: cell-based, Pseudomonas aeruginosa; conditions: for MIC: Pseudomonas aeruginosa, PAO1; for effect of the compound in combination with an antibiotic: result in words
Description: The biological activity of the above-mentioned compounds represented by formulae (H) and (s) can be measured as follows. Specifically, an enzyme inhibitory activity (IC50 value) against AmpC enzyme which is a class C β-lactamase was determined using nitrocephin as a substrate to check whether or not the compounds had the inhibitory activity and compare the activities of them. Further, using constitutive AmpC producing Pseudomonas aeruginosa, a combined antimicrobial activity (MIC) was measured when using Piperacillin (PIPC) as an antibiotic and the compound of formula (H) or (s) in combination to check whether or not the antimicrobial activity of PIPC could be restored.
The combinatorial effect of the test compound with a β-lactam agent against bacteria was evaluated using AmpC constitutive expression strain selected from P. aeruginosa PAO1 through agent exposure. Using piperacillin (PIPC, Sigma-Aldrich) as a β-lactam agent, measurement was conducted by agar plate dilution process in which minimal inhibitory concentration (MIC) of PIPC is based on Clinical and Laboratory Standards Institute (CLSI process). That is, an agara plate containing 4 μg/mL (final concentration) of test compound and PIPC at each concentration in Mueller-Hinton agar (Becton, Dickinson and Company) was made, and bacteria cultured overnight in cation-adjusted Muller-Hinton broth (Becton, Dickinson and Company) were adjusted in the same medium so as to have 10^4 CFU/spot and inoculated on a plate containing an agent. This plate containing an agent was cultured overnight at 35° C., and the minimum agent concentration in which no growth of bacteria is observed was determined to be MIC.

Chain of AmpC (P24735 27-397): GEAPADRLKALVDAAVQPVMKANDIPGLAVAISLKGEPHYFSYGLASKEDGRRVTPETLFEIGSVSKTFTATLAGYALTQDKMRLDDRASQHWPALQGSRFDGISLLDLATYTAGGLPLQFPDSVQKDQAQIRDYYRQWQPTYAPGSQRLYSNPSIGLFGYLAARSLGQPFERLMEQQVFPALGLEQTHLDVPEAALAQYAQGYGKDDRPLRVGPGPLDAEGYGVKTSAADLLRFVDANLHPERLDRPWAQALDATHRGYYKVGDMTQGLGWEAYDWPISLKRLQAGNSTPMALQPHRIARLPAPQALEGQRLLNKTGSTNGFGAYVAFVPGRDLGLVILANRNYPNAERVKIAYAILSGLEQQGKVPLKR

Row | SMILES | β-lactamase enzyme inhibitory activity [1] | MIC [2] | effect of the compound in combination with an antibiotic [2]
1 | NC(=O)[C@H]1CC[C@H]2CN1C(=O)N2OS(=O)(=O)[O-].[Na+] [Example 24, (2R,5S)-1,6-Diazabicyclo[3.2.1]octane-2-carboxamide, 7-oxo-6-(sulfoxy)-monosodium salt] | exhibited no activity | 64 µg/mL | exhibited no activity
2 | C[C@]1(Cn2ccnn2)[C@H](C(=O)[O-])N2C(=O)C[C@H]2S1(=O)=O.[Na+] [TAZ, Tazobactam, reference compound] |  | 64 µg/mL | 
3 | NC(=O)[C@@H]1CC[C@@H]2CN1C(=O)N2OS(=O)(=O)[O-].[Na+] [Example 23, (2S,5R)-1,6-Diazabicyclo[3.2.1]octane-2-carboxamide, 7-oxo-6-(sulfoxy)-monosodium salt] | exhibited the activities | 4 µg/mL | exhibited the activities
